Experimental data as given in ChEMBL document CHEMBL5532666 (J Med Chem, 2024).

Columns and labels:
[1] = target: T1, Serine/threonine-protein kinase 3 (Homo sapiens) (UniProt Q13188); details: dose 10.0 µM
T1 sequence (whole entry): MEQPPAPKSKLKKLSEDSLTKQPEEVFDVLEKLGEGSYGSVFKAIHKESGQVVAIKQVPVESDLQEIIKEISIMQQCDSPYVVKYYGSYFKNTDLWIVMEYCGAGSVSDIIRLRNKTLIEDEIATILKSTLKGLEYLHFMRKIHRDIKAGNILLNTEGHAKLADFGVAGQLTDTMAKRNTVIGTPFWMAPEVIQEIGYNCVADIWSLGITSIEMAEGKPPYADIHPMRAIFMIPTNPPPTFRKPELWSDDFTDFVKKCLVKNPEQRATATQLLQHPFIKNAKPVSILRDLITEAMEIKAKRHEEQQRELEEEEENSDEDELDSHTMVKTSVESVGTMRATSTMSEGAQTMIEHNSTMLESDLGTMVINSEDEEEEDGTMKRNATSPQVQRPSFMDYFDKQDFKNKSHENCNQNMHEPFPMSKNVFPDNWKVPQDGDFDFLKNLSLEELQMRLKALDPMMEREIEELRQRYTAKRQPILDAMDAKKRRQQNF
Description: Binding affinity to recombinant MST2 (unknown origin) kinase domain assessed as thermal stabilization by measuring change in melting temperature at 10 uM by DSF analysis

[2] = target: Serine/threonine-protein kinase 26 (Homo sapiens, UniProt Q9P289); details: dose 10.0 µM
Description: Binding affinity to recombinant MST4 (unknown origin) kinase domain assessed as thermal stabilization by measuring change in melting temperature at 10 uM by DSF analysis

[3] = target: T2, Serine/threonine-protein kinase 4 (Homo sapiens) (UniProt Q13043); details: dose 10.0 µM
T2 sequence (whole entry): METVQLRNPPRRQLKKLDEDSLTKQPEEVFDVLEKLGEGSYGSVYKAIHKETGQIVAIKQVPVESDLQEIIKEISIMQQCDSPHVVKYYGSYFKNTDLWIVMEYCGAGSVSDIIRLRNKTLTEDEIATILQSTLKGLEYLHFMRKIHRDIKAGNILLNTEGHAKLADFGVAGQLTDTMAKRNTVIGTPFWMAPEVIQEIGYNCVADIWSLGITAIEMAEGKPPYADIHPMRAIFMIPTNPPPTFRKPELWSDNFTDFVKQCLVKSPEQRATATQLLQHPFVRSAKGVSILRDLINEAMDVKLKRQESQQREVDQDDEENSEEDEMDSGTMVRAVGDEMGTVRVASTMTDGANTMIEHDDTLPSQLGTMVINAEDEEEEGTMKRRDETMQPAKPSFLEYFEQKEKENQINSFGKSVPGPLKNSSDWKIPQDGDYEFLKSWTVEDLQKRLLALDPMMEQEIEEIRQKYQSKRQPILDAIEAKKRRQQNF
Description: Binding affinity to recombinant MST1 (unknown origin) kinase domain assessed as thermal stabilization by measuring change in melting temperature at 10 uM by DSF analysis

HCT-116 [4] = test: Cell cycle arrest in human HCT-116 cells expressing […] assessed as G1 phase cells at 10 uM incubated for 72 hrs by Hoechst33342 staining based analysis (reference value: 52%); format: functional
HCT-116 [5] = test: Cell cycle arrest in human HCT-116 cells expressing […] assessed as S phase cells at 10 uM incubated for 72 hrs by Hoechst33342 staining based analysis relative to control; format: functional
HCT-116 [6] = test: Cell cycle arrest in human HCT-116 cells expressing […] assessed as G2/M phase cells at 1 uM incubated for 72 hrs by Hoechst33342 staining based analysis (reference value: 38%); format: functional
[7] = target: T3, Aurora kinase A (Homo sapiens) (UniProt O14965); test: Binding affinity to STK6 (unknown origin) assessed as thermal stabilization by measuring change in melting temperature by DSF analysis
T3 sequence (whole entry): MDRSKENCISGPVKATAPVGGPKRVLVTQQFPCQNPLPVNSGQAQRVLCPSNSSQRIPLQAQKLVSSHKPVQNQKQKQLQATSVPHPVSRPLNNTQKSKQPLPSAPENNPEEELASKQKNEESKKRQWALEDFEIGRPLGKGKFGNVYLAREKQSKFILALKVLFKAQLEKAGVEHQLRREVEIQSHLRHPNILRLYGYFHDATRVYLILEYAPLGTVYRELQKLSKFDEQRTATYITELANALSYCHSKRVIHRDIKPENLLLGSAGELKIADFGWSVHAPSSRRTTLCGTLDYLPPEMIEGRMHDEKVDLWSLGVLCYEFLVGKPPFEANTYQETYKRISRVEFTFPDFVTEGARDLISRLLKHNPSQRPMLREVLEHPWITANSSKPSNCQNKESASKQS

[8] = target: Dual specificity protein kinase CLK1 (Homo sapiens) (UniProt P49759); test: Binding affinity to CLK1 (unknown origin) assessed as thermal stabilization by measuring change in melting temperature by DSF analysis
[9] = target: T4, Serine/threonine-protein kinase RIO1 (Homo sapiens) (UniProt Q9BRS2); test: Binding affinity to RIOK1 (unknown origin) assessed as thermal stabilization by measuring change in melting temperature by DSF analysis
T4 sequence (whole entry): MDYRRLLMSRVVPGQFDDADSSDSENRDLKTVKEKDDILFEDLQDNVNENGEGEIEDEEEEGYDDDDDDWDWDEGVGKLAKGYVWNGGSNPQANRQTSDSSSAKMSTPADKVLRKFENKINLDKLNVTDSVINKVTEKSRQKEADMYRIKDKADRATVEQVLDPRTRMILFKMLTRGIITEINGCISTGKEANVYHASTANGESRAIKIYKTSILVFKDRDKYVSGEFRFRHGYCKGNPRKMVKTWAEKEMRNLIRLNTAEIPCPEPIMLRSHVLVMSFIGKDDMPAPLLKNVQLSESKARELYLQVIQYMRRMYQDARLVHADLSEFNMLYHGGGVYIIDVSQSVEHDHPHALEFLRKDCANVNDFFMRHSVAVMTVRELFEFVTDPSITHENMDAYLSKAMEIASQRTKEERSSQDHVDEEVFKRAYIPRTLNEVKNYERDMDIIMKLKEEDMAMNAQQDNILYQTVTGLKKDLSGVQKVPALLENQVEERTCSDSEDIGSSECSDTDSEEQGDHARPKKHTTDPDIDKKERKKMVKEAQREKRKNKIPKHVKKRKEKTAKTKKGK

LIM domain kinase 2 = LIM domain kinase 2 (Homo sapiens, UniProt P53671); test: Inhibition of wildtype LIMK2 (unknown origin) assessed as residual activity at 1 uM relative to control
Sequence of LIM domain kinase 2 (P53671 whole entry, looked up, the tested form may be a part): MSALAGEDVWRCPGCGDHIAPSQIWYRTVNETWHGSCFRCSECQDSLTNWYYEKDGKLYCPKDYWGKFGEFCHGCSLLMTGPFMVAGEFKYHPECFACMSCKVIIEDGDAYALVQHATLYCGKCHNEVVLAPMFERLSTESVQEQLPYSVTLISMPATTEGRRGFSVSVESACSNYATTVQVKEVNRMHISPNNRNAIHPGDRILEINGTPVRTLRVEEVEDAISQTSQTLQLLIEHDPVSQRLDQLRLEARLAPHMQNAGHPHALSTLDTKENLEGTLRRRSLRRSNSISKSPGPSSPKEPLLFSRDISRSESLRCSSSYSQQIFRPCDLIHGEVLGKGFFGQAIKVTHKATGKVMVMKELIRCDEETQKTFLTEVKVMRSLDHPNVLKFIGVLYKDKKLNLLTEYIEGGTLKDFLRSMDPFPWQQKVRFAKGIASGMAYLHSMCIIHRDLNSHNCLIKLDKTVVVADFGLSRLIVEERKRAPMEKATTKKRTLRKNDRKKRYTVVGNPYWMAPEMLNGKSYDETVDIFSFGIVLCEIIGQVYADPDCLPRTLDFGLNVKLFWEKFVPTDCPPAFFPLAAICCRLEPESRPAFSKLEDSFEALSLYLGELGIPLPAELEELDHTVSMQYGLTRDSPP

Sequence of Dual specificity protein kinase CLK1 (Homo sapiens) (P49759 whole entry, looked up): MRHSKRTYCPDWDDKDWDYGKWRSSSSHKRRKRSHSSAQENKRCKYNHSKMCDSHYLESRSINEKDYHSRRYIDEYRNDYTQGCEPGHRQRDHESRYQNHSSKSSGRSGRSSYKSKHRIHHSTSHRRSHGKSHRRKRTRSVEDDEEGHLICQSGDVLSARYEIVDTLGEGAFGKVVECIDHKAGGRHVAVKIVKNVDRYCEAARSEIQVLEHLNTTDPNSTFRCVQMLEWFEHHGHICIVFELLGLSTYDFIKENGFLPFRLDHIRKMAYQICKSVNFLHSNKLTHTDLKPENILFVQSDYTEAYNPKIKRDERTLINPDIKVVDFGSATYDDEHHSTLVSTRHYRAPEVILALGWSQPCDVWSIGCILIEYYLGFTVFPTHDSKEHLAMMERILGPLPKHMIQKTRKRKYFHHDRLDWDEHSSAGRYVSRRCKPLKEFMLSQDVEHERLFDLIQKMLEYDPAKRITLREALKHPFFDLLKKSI
Sequence of Serine/threonine-protein kinase 26 (Q9P289 2-416 limits assumed): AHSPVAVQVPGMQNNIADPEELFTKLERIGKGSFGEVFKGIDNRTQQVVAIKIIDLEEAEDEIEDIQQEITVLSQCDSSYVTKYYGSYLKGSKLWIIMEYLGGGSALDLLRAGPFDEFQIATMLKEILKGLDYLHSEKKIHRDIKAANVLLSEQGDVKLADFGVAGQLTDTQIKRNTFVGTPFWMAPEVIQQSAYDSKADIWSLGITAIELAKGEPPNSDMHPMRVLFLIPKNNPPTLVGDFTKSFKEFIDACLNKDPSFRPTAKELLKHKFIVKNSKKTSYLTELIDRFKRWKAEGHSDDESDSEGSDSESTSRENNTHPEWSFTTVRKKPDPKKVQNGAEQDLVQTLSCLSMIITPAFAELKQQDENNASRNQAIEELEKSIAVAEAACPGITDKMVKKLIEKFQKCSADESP

ΔTm [1]: 1.1 °C | ΔTm [2]: 7.4 °C | ΔTm [3]: 1.4 °C | ΔTm [7]: 5.1 °C | ΔTm [8]: 5.1 °C | ΔTm [9]: 5.1 °C | Activity (LIM domain kinase 2): 38.2%
SMILES: O=C1NCCCCCNc2nc(c3ccccc3n2)Nc2cc1[nH]n2
Activity (HCT-116 [4]): 40% | Activity (HCT-116 [5]): 27% | Activity (HCT-116 [6]): 33%
